Reference: patent US20040116420A1 (priority 2001, published 2004)

Assays:
Vero cells = experiment: Cytotoxicity, Vero cells, Alamar Blue; format: cell-based; details: 25 μM, 20 hours
Procedure, shortened: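 Living-cell ratio versus untreated control was read by Alamar Blue absorbance after about 6 h of dye incubation. Before that, Vero cells had received 25 μM test compound in 2% FBS-DMEM for 20 hours at 37 °C under 5% CO2.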

HSV-1 [1] = experiment: Antiviral activity, HSV-1 in Vero cells, plaque method; format: cell-based; details: Human alphaherpesvirus 1, 20 hours, 90% inhibition of plaque formation
Procedure, shortened: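 This is a virus-yield read-out. The culture medium was frozen at −80° C and thawed, and the plaques it formed were counted. It came from Vero monolayers infected with 50,000 pfu HSV-1 and then exposed to the compound for 20 h at 37° C. EC90 is the concentration inhibiting 90% of plaque formation relative to the untreated infected control.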

HSV2 = experiment: Antiviral activity 2, plaque formation in HEL cells; format: cell-based, HSV-2; details: Human alphaherpesvirus 2, 72 h, 3 days
Experimental: (§1) An Assay Method for Antiviral Activity 2
(§2) The HEL cells were sowed on a 48-well plate and then cultured overnight. The culture supernatant was removed, and 100 μl of 2% FBS-DMEM containing 40 Plaque-forming units of HSV-1, HSV-2, VZV, or CMV was added. A viral solution Was removed 1 hour later, and 500 μl of 2% FBS-DMEM containing 0.5% methylcellulose comprising 50, 25, 12.5, 6.3, 3.2, or 1.6 μM of the test compound was added. In this case, a substance to which 2% FBS-DMEM containing 0.5% methylcellulose not comprising any test compound had been added was designated as a control. In the case of HSV-1, HSV-2, or VZV, incubation was carried out in the presence of 5% CO2 at 37° C. for 3 days. In the case of CMV, incubation was carried out under the same conditions for 14 days. After they were immobilized on formalin and stained with bromophenol blue, the amount of plaque formed was counted, and the ratio of plaque formation of the drug-containing reaction system relative to the control was determined. The concentration of the drug with which the ratio of plaque formation reaches 50% was calculated and determined to be IC50. Concerning HSV-1, an aciclovir-resistant thymidine kinase variant and a DNA polymerase variant were examined in addition to a general aciclovir-sensitive strain.

VZV = experiment: as above; format: cell-based; details: Human alphaherpesvirus 3, 72 h, 3 days
Experimental: as §1, §2

HSV-1 [2] = experiment: Inhibition of virus multiplication through combined use, plaque formation in Vero cells; format: cell-based; details: 3 days
Experimental: Activity of Inhibiting Virus Multiplication Through Combined use
The Vero cells were sowed on a 48-well plate and then cultured overnight. The culture supernatant was removed, and 100 μl of 2% FBS-DMEM containing 40 Plaque-forming units of HSV-1 was added. A viral solution was removed 1 hour later, And 500 μl of 2% FBS-DMEM containing 0.5% methylcellulose comprising the test Compound was added. In this case, a substance to which 2% FBS-DMEM containing 0.5% methylcellulose not comprising any test compound had been added was designated as a control. They were incubated in the presence of 5% CO2 at 37° C. for 3 days. After they were immobilized on formalin and stained with bromophenol blue, the Amount of plaque formed was counted, and the ratio of plaque formation of the drug-containing reaction system relative to the control was determined. Examination was carried out using the Compound No.18 in combination with aciclovir, the Compound No. 18 in combination with penciclovir, and the Compound No.18 in combination with ganciclovir. In this examination, 25, 12.5, 6.3, 3.2, 1.6, or 0 μM of the Compound No. 18 was used, and 3.2, 1.6, 0.8, 0.4, 0.2, or 0 μM of aciclovir, penciclovir, or ganciclovir was used.

## Cc1c(NC(=O)OC(C)(C)C)ccc2nc(NC(C)(C)C(=O)N(C)CCc3ccccn3)oc(=O)c12 [Compound No.18, (5-methyl-2-{1-methyl-1-[methyl-(2-pyridin-2-yl-ethyl)-carbamoyl]-ethylamino}-4-oxo-4H-benzo[d][1,3]oxazin-6-yl)-carbamic Acid Tert-Butyl Ester]
Vero cells
  Cell viability (% of control): 101.0%
HSV-1 [1]
  EC90: 8.4 µM
HSV2
  IC50: 12.5 µM
VZV
  IC50: 25 µM
HSV-1 [2]; in combination with aciclovir
  Inhibition of multiplication of HSV-1 through combined use: synergistically inhibited
HSV-1 [2]; in combination with ganciclovir
  Inhibition of multiplication of HSV-1 through combined use: synergistically inhibited
HSV-1 [2]; in combination with penciclovir
  Inhibition of multiplication of HSV-1 through combined use: synergistically inhibited
